US20250042900A1 (priority 2022, published 2025)
pEC50: −log10 of the molar value. Counter-ions that a name gives are not always drawn.

Columns and labels:
[1] = biological target: T1, dopamine transporter (DAT) (Rattus norvegicus, UniProt P23977); test: Dopamine Release Assay in rat synaptosomes; format: biochemical; conditions: rat synaptosomes preloaded with 30 nM [3H]DA; eight concentrations from 10 μM; four-parameter log-logistic fit; estimated
T1 construct: synaptosomes prepared from brains using standard procedures; from tissue; host or cells: caudate synaptosomes of male Sprague-Dawley rats

[2] = biological target: CAV1.2 (Voltage-gated L-type calcium channel) (Homo sapiens, UniProt Q13936); test: Ion channel assay, blocker format; format: cell-based; conditions: read-out: IC50 (μM) Antag./Blocker/Inhibitor
[3] = humans, after 75 or 125 mg MDMA; standard deviation 1.3 hours; cited from earlier work
[4] = tested on: DAT and SERT; conditions: cited from earlier work
[5] = tested on: DAT and NET; conditions: neurotransmitter release; cited from earlier work
[6] = biological target: Nicotinic acetylcholine Receptor α4 β2 (nAChR(a4/b2)) (Homo sapiens, UniProt P17787+P43681); test: Ion channel assay, blocker format; format: cell-based; conditions: nAChR(a4/b2); Ion Channel; blocker; read-out: IC50 (μM) Antag./Blocker/Inhibitor
[7] = biological target: Gamma-aminobutyric acid Receptor A (GABAA); test: Ion channel assay, blocker format; format: cell-based; conditions: GABAA; Ion Channel; blocker; read-out: IC50 (μM) Antag./Blocker/Inhibitor

T1 sequence (P23977 whole entry): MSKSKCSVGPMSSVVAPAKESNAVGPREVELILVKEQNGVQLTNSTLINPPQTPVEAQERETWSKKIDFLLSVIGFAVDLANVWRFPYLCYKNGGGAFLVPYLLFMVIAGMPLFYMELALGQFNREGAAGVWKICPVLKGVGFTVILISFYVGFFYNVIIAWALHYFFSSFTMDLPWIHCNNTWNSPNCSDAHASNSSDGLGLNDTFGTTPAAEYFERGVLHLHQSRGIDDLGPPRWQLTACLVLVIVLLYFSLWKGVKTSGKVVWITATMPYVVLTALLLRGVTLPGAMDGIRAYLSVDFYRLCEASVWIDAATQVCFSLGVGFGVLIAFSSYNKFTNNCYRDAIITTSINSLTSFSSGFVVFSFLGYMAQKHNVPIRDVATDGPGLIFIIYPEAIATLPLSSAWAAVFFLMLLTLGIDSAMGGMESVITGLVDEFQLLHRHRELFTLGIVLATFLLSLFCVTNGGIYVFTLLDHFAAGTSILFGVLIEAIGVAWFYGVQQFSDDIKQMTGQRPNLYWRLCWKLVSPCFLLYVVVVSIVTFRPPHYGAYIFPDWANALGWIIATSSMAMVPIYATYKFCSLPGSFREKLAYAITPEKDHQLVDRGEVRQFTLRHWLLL
Nicotinic acetylcholine Receptor α4 β2 (nAChR(a4/b2)), sequence (P43681 29-627 limits assumed): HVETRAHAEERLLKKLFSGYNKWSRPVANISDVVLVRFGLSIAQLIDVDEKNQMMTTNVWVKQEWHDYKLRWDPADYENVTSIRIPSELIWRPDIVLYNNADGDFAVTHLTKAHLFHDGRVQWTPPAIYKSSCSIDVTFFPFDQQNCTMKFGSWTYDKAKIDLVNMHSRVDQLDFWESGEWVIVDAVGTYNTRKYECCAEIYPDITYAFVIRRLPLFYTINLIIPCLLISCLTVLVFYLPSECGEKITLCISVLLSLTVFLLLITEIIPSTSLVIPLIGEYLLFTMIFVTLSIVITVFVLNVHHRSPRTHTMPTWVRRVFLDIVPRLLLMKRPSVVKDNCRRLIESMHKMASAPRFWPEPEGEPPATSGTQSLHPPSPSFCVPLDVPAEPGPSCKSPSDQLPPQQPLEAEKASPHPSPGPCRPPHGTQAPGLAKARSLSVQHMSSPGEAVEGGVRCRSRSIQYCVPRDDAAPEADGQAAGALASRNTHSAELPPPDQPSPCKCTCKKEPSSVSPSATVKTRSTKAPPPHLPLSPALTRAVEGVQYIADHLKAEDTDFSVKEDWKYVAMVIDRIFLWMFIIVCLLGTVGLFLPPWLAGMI
Nicotinic acetylcholine Receptor α4 β2 (nAChR(a4/b2)), sequence (P17787 26-502): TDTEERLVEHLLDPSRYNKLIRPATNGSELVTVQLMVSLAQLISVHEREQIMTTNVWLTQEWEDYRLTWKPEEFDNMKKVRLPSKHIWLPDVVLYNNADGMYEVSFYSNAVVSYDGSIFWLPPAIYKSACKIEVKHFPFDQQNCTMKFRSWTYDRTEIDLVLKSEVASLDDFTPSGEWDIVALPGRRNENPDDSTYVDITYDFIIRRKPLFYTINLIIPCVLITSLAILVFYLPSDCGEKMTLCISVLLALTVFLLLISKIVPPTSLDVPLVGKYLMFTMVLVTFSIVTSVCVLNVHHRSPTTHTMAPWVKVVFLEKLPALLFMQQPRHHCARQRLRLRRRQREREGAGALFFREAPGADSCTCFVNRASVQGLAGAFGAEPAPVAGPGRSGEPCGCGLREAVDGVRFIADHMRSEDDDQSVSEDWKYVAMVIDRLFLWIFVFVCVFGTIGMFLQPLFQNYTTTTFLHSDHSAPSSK

Compound: CCC(Cc1ccn2ccccc12)NC (stereo not shown) [Compound 25-14, 1-(indolizin-1-yl)-N-methylbutan-2-amine]
- pEC50 [1]: 5.57

Compound: CNC(C)Cc1ccn2ccccc12 (stereo not shown) [Compound 26-5, 1-(indolizin-1-yl)-N-methylpropan-2-amine HCl salt]
- pEC50 [1]: 7.21

Compound: CCC(N)Cc1ccn2ccccc12 (stereo not shown) [Compound 27-1, 1-indolizin-1-ylbutan-2-amine HCl salt]
- pEC50 [1]: 4.66

Compound: COC(=O)C1=C(C)NC(C)=C(C(=O)OC(C)C)C1c1cccc2nonc12 (stereo not shown) [Isradipine, reference compound]
- IC50 [2]: 0.017 µM

Compound: CNC(C)Cc1ccc2c(c1)OCO2 (stereo not shown) [MDMA]
- duration of acute therapeutic effects [3]: 4.2 h
- DAT/SERT IC50 ratio [4]: 0.08

Compound: C[C@H](N)Cc1ccccc1 [d-amphetamine, dextroamphetamine]
- DAT/NET EC50 ratio [5]: 0.9

Compound: CN[C@@H](C)Cc1ccccc1 [d-methamphetamine]
- DAT/NET EC50 ratio [5]: 0.5

Compound: Dihydro-AY-erythroidine [reference compound]
- IC50 [6]: 0.682 µM

Compound: Picrotoxin [reference compound]
- IC50 [7]: 2.78 µM
